# Measurements reported in patent publication US12344584B2, “KCNQ potentiators” (Eli Lilly and Company, priority 2019, dated 2025).
# pEC50: −log10 of the molar value. Like-named read-outs stand apart in the source and are kept apart here.
# Assays:
# [1] = tested on: motor neurons derived from ALS patient iPSC line with pathogenic mutation in TARDBP; assay: Optopatch excitability assay in motor neurons derived from ALS patient iPSC line (TARDBP mutation); assay type: cell-based, human; conditions: Homo sapiens, iPSC, TARDBP line, blue LED 5.1 mW/cm^2, mean, read-out: EC50, inhibition of excitability (action potential frequency)
# From the text: (§1) Optopatch Excitability Assay for Example 1 in Motor Neurons Derived From ALS Patient iPSC Lines
# (§2) Altered excitability of cortical neurons and lower motor neuron is an important factor in the pathophysiology of ALS (See, for example, K. Kanai, et. al., J Neurol Neurosurg Psychiatry, 83, 734-738 (2012); P. Menon, et. al., Eur Neurol., 24, 816-824 (2017)). All-optical electrophysiology (“Optopatch”) was used to evaluate excitability in cultured motor neurons derived from iPSC lines from two ALS patients with different pathogenic mutations.
# (§3) Cell Culture: The two iPSC lines are derived from one patient with a pathogenic mutation in TARDBP and one patient with a pathogenic repeat expansion mutation in C9orf72, respectively. Motor neurons are generated from these lines by a 2D differentiation method adapted from the dual SMAD inhibition neuronal patterning protocol (See S. M. Chambers, et. al., Nat Biotechnol., 27, 275-280 (2009)) by inclusion of motor neuron morphogens. Differentiation is verified by visual inspection, karyotyping and staining for beta-III-tubulin and the nuclear motor neuron marker ISL1. Neurons are cultured on a monolayer of mouse glia in mTeSR (Stem Cell Technologies), supplemented with 10 ng/mL BDNF. Forty-eight hours prior to imaging, 100 nM trans-retinal was added to the medium.
# (§4) Transduction with Optopatch vectors: At 15 days in vitro, cultured motor neurons are transduced with a lentiviral vector to drive the co-expression of the actuator CheRiff-mOrange2 and the voltage indicator QuasAr3-Citrine (for details see D. R. Hochbaum, et. al., Nat. Methods, 11, 825-833 (2014)). Forty-eight hours prior to imaging, 100 nM trans-retinal was added to the medium.
# Solutions: Recordings are performed in Brainphys™ imaging buffer with 3 mM potassium. The gap junction blocker 2-aminoethoxydiphenyl borate (50 μM) is added to eliminate electrical coupling between cells, and NBQX (10 μM), gabazine (20 μM), and AP5 (25 μM) were used to block synaptic transmission.
# Optopatch Recordings: Five days after transduction, Optopatch imaging is performed on a custom, ultra-widefield fluorescence microscope at RT. Motor neurons are illuminated with red laser excitation (200 W/cm^2; 635 nm) to monitor changes in QuasAr fluorescence and blue LED excitation (0-127 mW/cm^2, 470 nm) to depolarize the cell membrane with CheRiff. A custom blue light stimulus protocol is used consisting of: i) 2 sec of red illumination only to monitor spontaneous activity, ii) 5×500 msec steps of increasing blue light intensity and iii) 2×2 sec linearly increasing blue light ramps, each with a different maximum blue intensity. Optopatch data are recorded using a Hamamatsu ORCA-Flash 4.0 sCMOS camera with a 1 kHz frame rate. The field of view size is 4 mm×0.5 mm. Custom control software written in MATLAB is used to control illumination protocols and record all movies. To examine acute effects of Kv7.2/7.3 potentiators, neurons are incubated with test compound for 15 min prior to imaging.
# (§5) Data Analysis: Image segmentation analysis is performed using temporal Principle Component Analysis and spatial-temporal Independent Component Analysis to isolate individual neurons. A spike-finding algorithm is used to find action potentials, and data are analyzed for compound effects on mean firing rate, adaptation, rheobase and action potential waveform shape by comparing to vehicle controls (for detail, see C. A. Werley, et. al., Curr. Protoc. Pharmacol., 78, 11.20.1-11.20.24. (2017)).
# Subjected to the protocol described above, the primary effect of the Example 1 is on the action potential firing rate in response to low intensity blue light illumination.
# Fitting a 4-parameter logistic equation to the data may be used to determine the potency (EC50) of the effect of Example 1 on action potential frequency. Results are shown in Table 1 for two separate differentiation efforts each for the lines derived from the patients carrying the TARDBP and C9orf72 mutations.
# [2] = tested on: motor neurons derived from ALS patient iPSC line with pathogenic repeat expansion mutation in C9orf72; assay: Optopatch excitability assay in motor neurons derived from ALS patient iPSC line (C9orf72 repeat expansion); assay type: cell-based; conditions: Homo sapiens, read-out: EC50, inhibition of excitability (action potential frequency)
# From the text: as §1, §2, §3, §4
# Solutions: Recordings are performed in Brainphys™ imaging buffer with 3 mM potassium. […]
# Optopatch Recordings: Five days after transduction, Optopatch imaging is performed on a custom, ultra-widefield fluorescence microscope at RT. Motor neurons are illuminated with red laser excitation (200 W/cm^2; 635 nm) to monitor changes in QuasAr fluorescence and blue LED excitation (0-127 mW/cm^2, 470 nm) to depolarize the cell membrane with CheRiff. […] Optopatch data are recorded using a Hamamatsu ORCA-Flash 4.0 sCMOS camera with a 1 kHz frame rate. […]
# as §5, with “(2017)). […]” for “(2017)).”
# peripheral axons = assay: Threshold tracking of peripheral nerve excitability in anesthetized rats; assay type: in vivo; conditions: rat, dosed 45 min after Example 1 at 30 mg/kg
# Protocol: Threshold Tracking to Measure the Effects of Example 1 at 3.10 and 30 mg/kg IP on Peripheral Nerve Excitability
# Threshold tracking is a non-invasive technique that allows measurement of the excitability properties of peripheral axons by providing information about their membrane potential and ion channel function.
# 16 male Wistar rats from Charles River, weighing between 307-446 g ware used. Animals are group housed with standard housing conditions (4 per cage, 07:00 h to 19:00 h light phase, constant temperature (21° C.) and humidity, and free access to food and water, as well as environmental enrichment).
# Rats are anesthetized with isoflurane (2-2.5%, O2 at 0.5 L/min) and then placed on their back on a heating pad to keep the tail temperature above 32° C. The placement of the ring electrodes are marked out and the marked sections of the tail are scraped with a blade to remove hair and the top layer of skin. The sites are cleaned with water and dried, allowing fora good conduction between the skin and the sticky electrodes.
# A sticky ring stimulating electrode (+ve anode) is wrapped around the foot. A second sticky ring stimulating electrode (−ve cathode) is wrapped 1.5 cm from the base of the tail. A needle recording electrode is placed just off center on the top of the tail, 6 cm distal to the stimulating cathode at the base of the tail. A needle reference electrode is placed just off center on the top of the tail, 2 cm distal to the recording electrode. A sticky ground electrode is wrapped around the tail 2 cm proximal from the recording electrode.
# • Start the Multitrack program (description below) and Spike. • Record 15 min of stable baseline • After the 15 min, dose with Example 1 or HEC • Take blood spot for PK at the following: • 10 min post dose • 20 min post dose • 30 min post dose • 40 min post dose • 45 min after IP (intraperitoneal) dosing with Example 1, dose XE-991 (XE-991 is a commercially available compound that blocks KCNQ potentiator effects in a formalin assay in vivo—see Y. Zheng, et al., “Activation of peripheral KCNQ channels relieves gout pain,” Pain, 156 (2015) 1025-1035; and R. Zaczek, et al., “Two New Potent Neurotransmitter Release Enhancers, 10,10-Bis(4-Pyridinylmethyl)-9(10H)-Anthracenone and 10,10-Bis(2-Fluoro-4-Pyridinylmethyl)-9(10H)-Anthracenone: Comparison to Linopirdine” The Journal of Pharmacology and Experimental Therapeutics, 285:724-730, 1998. • (XE-991 is only dosed after Example 1 at 30 mg/kg) • Take blood spot for PK at the following: • 10 min post dose (55 min post Example 1 administration) • 20 min post dose (65 min post Example 1 administration) • 30 min post dose (75 min post Example 1 administration) • 40 min post dose (85 min post Example 1 administration)
# In threshold tracking assay to measure the excitability properties of peripheral axons studies in rat, compound is administered by IP at 3, 10 or 30 mg/kg using 1% hydroxyethylcellulose: 0.25% polysorbate 80:0.05% antifoam:purified water (HEC) formulation. Dry blood spots (DBS) are collected around 10, 20, 30 and terminal 40 min post-dose. DBS samples are dried at RT for around 2 h. Brain samples are obtained at terminal time point and frozen until analysis. DBS samples are shipped and stored at RT.
# [3] = molecular target: T1, hKv7.2 and hKv7.3 (Kv7.2/7.3) (Homo sapiens, UniProt O43525+O43526); assay: Modulation of Kv7.2/7.3 conductance, automated electrophysiology (IonWorks Barracuda, population patch clamp) in HEK293 cells; assay type: cell-based; set-up: Voltage Shift ([…]V0.5), Mean: unit not given here; conditions: for Maximal Shift (efficacy) / Slope / pEC50: 4-parameter logistic fit of voltage shift data; for pEC50: read-out: EC50 (potency of V0.5 shift)
# T1 construct: host or cells: HEK293
# Protocol: Modulation of Kv7.2/7.3 Conductance by Kv7 Potentiators in a Mammalian Expression System
# The potency and efficacy of Kv7 potentiators is assessed by automated electrophysiology on the IonWorks Barracuda (Molecular Devices) platform using the population patch clamp mode of the instrument.
# Cell Culture: HEK293 cells stably expressing hKv7.2 (under tetracycline induction) and hKv7.3 (Catalog #CT6147, Charles River) are used for these studies. Cells are maintained in a Dulbecco's modified Eagle's medium/nutrient mixture Ham's F-12 (Sigma-Aldrich) supplemented with 5% tetracycline-screened fetal bovine serum (Sigma-Aldrich), 15 mM HEPES, 500 μg/mL G418, 100 U/mL penicillin, 100 μg/mL streptomycin, […] L-glutamine, 100 μg/mL zeocin, and 5 μg/mL blasticidin. Expression of hKv7.2 is induced by addition of 1 μg/mL doxycycline 24 h prior to recordings.
# Cells are cultured in Corning T-150 flasks to a confluence of 85%-95%. At the start of an experiment, cells are washed once with D-PBS without calcium and magnesium and then dissociated by incubating in 3 ml of 0.25% trypsin for 8 min at 37° C. Cells ware resuspended in media, triturated gently, and centrifuged for 4 min at 1,000 rpm. Cells are resuspended in external solution to a final concentration of 2.5-3.5M cells/mL.
# Solutions: External solution w is composed of (in mM): 140 NaCl, 5 KCl, 2 CaCl2, 1 MgCl2, 10 HEPES, 10 Glucose, pH 7.4. Internal solution is composed of (in mM): 90 K-gluconate, 40 KCl, 3.2 EGTA, 3.2 MgCl2, 5 HEPES, pH 7.25. The membrane perforating agent amphotericin B is prepared daily as a 27 mg/mL stock solution in DMSO and then added to the internal solution to a final concentration of 0.1 mg/mL. Test article dilutions are prepared in 384-well plates from 10 mM DMSO stock solutions and diluted using acoustic dispensing (Labcyte ECHO®), such that final DMSO concentrations are 0.1%.
# Electrophysiological Recordings: Resuspended cells are placed on the IONWORKS® BARRACUDA™ (IWB) instrument, external solution is added to a 384-well patch plate, and a hole test is performed to determine blocked wells and offset voltages. Cells are then added to the patch plate (9 μL per well) by the instrument. Two seal tests are performed prior to introducing the perforating agent amphotericin in the internal solution and allowing approximately 8 min to obtain electrical access, which is verified by a third seal test. The command voltage protocol consists of a family of 1 sec voltages steps from −80 mV to +40 mV from a holding potential of −80 mV and is applied prior to (baseline) and 6 min after test article addition.
# Data Analysis: Data are acquired and leak subtracted using IWB software. Current amplitudes during the last 10 msec of each voltage step are averaged and exported. Further analysis is performed using Microsoft Excel and GraphPad Prism. Current amplitude is converted to conductance (G) by the following formula: G=I/(V−Ek) where I=current, V=step potential, Ek=potassium reversal potential (−84 mV). Conductance in the presence of test article is normalized to the baseline conductance at +40 mV for the same well. Conductance-voltage (G−V) curves are fitted with the Boltzmann equation y=Bottom+(Top−Bottom)/(1+EXP((Vm−V0.5/k)).
# Fitting a 4-parameter logistic equation to the data may be used to determine the potency (EC50) and efficacy (maximal shift) for each test compound.
# [4] = 10 μM, difference from control in voltage at half-maximal conductance
pEC50 ([1]; Diff 1),pEC50 ([1]; Diff 2),"pEC50 ([2]; Diff 1, blue LED 5.1 mW/cm^2, mean)","pEC50 ([2]; Diff 2, blue LED 5.1 mW/cm^2, mean)","Voltage Shift ([…]V0.5), Mean ([3]; 0.0005 μM)","Voltage Shift ([…]V0.5), Mean ([3]; 0.0015 μM)","Voltage Shift ([…]V0.5), Mean ([3]; 0.005 μM)","Voltage Shift ([…]V0.5), Mean ([3]; 0.01 μM)","Voltage Shift ([…]V0.5), Mean ([3]; 0.04 μM)","Voltage Shift ([…]V0.5), Mean ([3]; 0.12 μM)","Voltage Shift ([…]V0.5), Mean ([3]; 0.37 μM)","Voltage Shift ([…]V0.5), Mean ([3]; 1.11 μM)","Voltage Shift ([…]V0.5), Mean ([3]; 3.33 μM)","Voltage Shift ([…]V0.5), Mean [3, 4]",Maximal Shift (efficacy) [3],Slope [3],pEC50 [3],Structure (SMILES),reversal of the Example 1 induced increase in absolute threshold (peripheral axons)
5.94,6.08,5.78,5.87,,,,,,,,,,,,,,"CCOC(=O)Nc1ccc(NCc2ccc(F)cc2)nc1N [Flupirtine, flupirtine, reference compound]",
,,,,,,,,,,,,,,,,,"O=C1c2ccccc2C(Cc2ccncc2)(Cc2ccncc2)c2ccccc21 [XE-991, reference compound]",able to reverse this increase
,,,,6.1,4.1,5.0,4.1,7.4,2.9,−1.9,−10.6,−23.0,−25.8,−28,1.3,5.96,"O=C(NCc1ccnc(OCC(F)(F)F)c1)NCC(O)C1(C(F)(F)F)CC1 (single isomer, unassigned) [Example 2, (+)-1-[2-hydroxy-2-[1-(trifluoromethyl)cyclopropyl]ethyl]-3-[[2-(2,2,2-trifluoroethoxy)-4-pyridyl]methyl]urea and (−)1-[2-hydroxy-2-[1-(trifluoromethyl)cyclopropyl]ethyl]-3-[[2-(2,2,2-trifluoroethoxy)-4-pyridyl]methyl]urea]",
,,,,3.9,0.1,1.9,−1.8,−4.4,−11.0,−19.6,−21.9,−23.9,−21.9,−23,1.1,7.00,"O=C(NCCC1(C(F)(F)F)CC1)NCc1ccnc(OCC(F)(F)F)c1 [Example 3, 1-[[2-(2,2,2-trifluoroethoxy)-4-pyridyl]methyl]-3-[2-[1-(trifluoromethyl)cyclopropyl]ethyl]urea]",
